Consider eight molecules from patent publication US4426382A, “4-Amino-6,7-dimethoxy-2-piperazinylquinazoline derivatives, their preparation and use” (Sankyo Company Limited, priority 1980, dated 1984).

Assay [1] deals with spontaneously hypertensive rats. In words: antihypertensive activity: blood pressure after oral administration to conscious spontaneously hypertensive rats. The assay is classed as in vivo. To be noted: male spontaneously hypertensive rats. The method, then: The animals used in this test were 15 week old male spontaneously hypertensive rats. 3-5 rats were used to test each concentration of each compound. Each animal was treated as follows. […] A polyethylene cannula was then inserted into the abdominal aorta by the method of Weeks and Jones [J. R. Weeks and J. A. Jones, Proc. Soc. […] The other end of the cannula, leading out of the body, was fixed to the neck. One week after the operation, when the animal had recovered from post-operative invasion, this end of the cannula was connected to an apparatus to measure the blood pressure and heart beat directly without the need for any further anesthesia or restraint. The haemomanometer used was an improved type of that originated by Laffan et al. [P. J. Laffan, A. Peterson, S. W. Hitch and C.
The compound under test was suspended at the desired concentration in a 0.3% w/v aqueous solution of carboxymethylcellulose and administered orally in a volume of 2 ml/kg body weight. […] After administration of the sample, the blood pressure and heart beat of each animal were measured for 24 hours at 15 minute intervals.
For purposes of comparison, the same experiment was carried out with various concentrations of the known hypotensive agent, prazosin, in the form of its hydrochloride.
Δmax =Maximum change in blood pressure (mm/Hg) after administration of the compound under test;
Tmax =Time (in hours) after administration of the compound under test required for the blood pressure to obtain a maximum change;
T0.5 max =Time (in hours) after administration of the compound under test for the blood pressure to return to one-half of its maximum value.

For assay [2] the following is noted: background; cited from earlier work.

Structures can show the parent of a compound that is named as a salt.

For the molecule `CC=C(C)C(=O)N1CCN(c2nc(N)c3cc(OC)c(OC)cc3n2)CC1` [Compound No. 3, 4-Amino-2-[4-(2,3-dimethylacryloyl)-1-piperazinyl]-6,7-dimethoxyquinazoline], in assay [1] (dose 30 mg/kg oral), the “T0.5 max, time after administration for the blood pressure to return to one-half of its maximum value” (from here on “T0.5 max, time after administration”) came out at 2 h; the “Tmax, time after administration required for the blood pressure to obtain a maximum change” value (from here on “Tmax, time … to obtain a maximum change”) amounted to 30 min; the “Δmax, maximum change in blood pressure after administration” value (from here on “Δmax, maximum change in blood pressure”) is given as -30 mmHg.
The matching figures for `COc1cc2nc(N3CCN(C(=O)C=C(C)C)CC3)nc(N)c2cc1OC` [Compound No. 4, 4-Amino-2-[4-(3,3-dimethylacryloyl)-1-piperazinyl]-6,7-dimethoxyquinazoline]: 3 h, 30 min and -30 mmHg.
For the molecule `CCC=CC(=O)N1CCN(c2nc(N)c3cc(OC)c(OC)cc3n2)CC1` [Compound No. 5, 4-Amino-6,7-dimethoxy-2-[4-(2-pentenoyl)-1-piperazinyl]quinazoline], in assay [1] (dose 3 mg/kg oral), the “Tmax, time … to obtain a maximum change” value came out at 30 min and the “Δmax, maximum change in blood pressure” value is -40 mmHg. In addition, the “T0.5 max, time after administration” value in assay [1] (dose 3 mg/kg oral, 3 mg/kg) was determined as 9 h. Also, in assay [1] (dose 30 mg/kg oral, 30 mg/kg), the “T0.5 max, time after administration” value worked out at 11.5 h; the “Tmax, time … to obtain a maximum change” value was determined as 30 min; the “Δmax, maximum change in blood pressure” value is given as -50 mmHg.
For the molecule `C=CCCC(=O)N1CCN(c2nc(N)c3cc(OC)c(OC)cc3n2)CC1` [Compound No. 6, 4-Amino-6,7-dimethoxy-2-[4-(4-pentenoyl)-1-piperazinyl]quinazoline], in assay [1] (dose 3 mg/kg oral), the “T0.5 max, time after administration” value is 8 h; the “Tmax, time … to obtain a maximum change” value came to 30 min; the “Δmax, maximum change in blood pressure” value is given as -40 mmHg. In assay [1] (dose 30 mg/kg oral), the “T0.5 max, time after administration” value came out at 13 h; the “Tmax, time … to obtain a maximum change” value is 30 min; the “Δmax, maximum change in blood pressure” value is given as -65 mmHg.
Turning to `CCC=CCC(=O)N1CCN(c2nc(N)c3cc(OC)c(OC)cc3n2)CC1` [Compound No. 7, 4-Amino-2-[4-(3-hexenoyl)-1-piperazinyl]-6,7-dimethoxyquinazoline], in assay [1] (dose 3 mg/kg oral), the “T0.5 max, time after administration” value amounted to 7 h; the “Tmax, time … to obtain a maximum change” value turned out to be 30 min; the “Δmax, maximum change in blood pressure” value was -20 mmHg. In assay [1] (dose 30 mg/kg oral), the “T0.5 max, time after administration” value amounted to 15 h; the “Tmax, time … to obtain a maximum change” value was 30 min; the “Δmax, maximum change in blood pressure” value is listed as -25 mmHg.
Turning to `CCCC=CC(=O)N1CCN(c2nc(N)c3cc(OC)c(OC)cc3n2)CC1` [Compound No. 8, 4-Amino-2-[4-(2-hexenoyl)-1-piperazinyl]-6,7-dimethoxyquinazoline], in assay [1] (dose 3 mg/kg oral), the “T0.5 max, time after administration” value was 4.5 h; the “Tmax, time … to obtain a maximum change” value was 30 min; the “Δmax, maximum change in blood pressure” value is -35 mmHg. Besides, in assay [1] (dose 30 mg/kg oral), the “T0.5 max, time after administration” value stood at 7 h; the “Tmax, time … to obtain a maximum change” value was found to be 30 min; the “Δmax, maximum change in blood pressure” value is listed as -40 mmHg.
On to `COc1cc2nc(N3CCN(C(=O)c4ccco4)CC3)nc(N)c2cc1OC` [prazosin hydrochloride, prazosin, reference compound], for which the results for the “Tmax, time … to obtain a maximum change” value in assay [1] (dose 3 mg/kg oral) and in assay [1] (dose 30 mg/kg oral) were 30 min and 60 min, respectively. In addition, the “Δmax, maximum change in blood pressure” value in assay [1] (dose 3 mg/kg oral) is listed as -35 mmHg; in assay [1] (dose 30 mg/kg oral), -50 mmHg.
For the molecule `COc1cc2nc(N3CCN(C(=O)c4ccco4)CC3)nc(N)c2cc1OC` [prazosin], in assay [2], the “antihypertensive activity (in words)” value is listed as “very useful antihypertensive activity”, the “disappearance of hypotensive effect (in words)” value was “the effect tends also to diappear quickly” and the “time to maximum hypotensive effect (in words)” value was “maximum hypotensive effect tends to be achieved very quickly”.
